Experimental data as given in patent publication US7919486B2, “Use of gallium(III) complexes for the treatment of melanomas” (Niiki Pharma Inc., priority 2007, dated 2011).

Tests used:
SK-MEL-5 = assay: cytotoxic activity in cell culture on melanoma cell line SK-MEL-5; assay type: cell-based; details: SK-MEL-5 melanoma cell line obtained from human tumors
Description: (§1) The compound of tris(hydroxyquinolinolato)gallium(III) was analyzed with respect to its cytotoxic activity in the cell culture on the melanoma cell lines obtained from human tumors.

SK-MEL-28 = assay: cytotoxic activity in cell culture on melanoma cell line SK-MEL-28; assay type: cell-based; details: SK-MEL-28 melanoma cell line obtained from human tumors
Description: as §1

Structure (SMILES): c1cnc2c([O][Ga]([O]c3cccc4cccnc34)[O]c3cccc4cccnc34)cccc2c1 [tris(hydroxyquinolinolato)gallium(III)]
- IC50 (SK-MEL-5): 0.76 µM
- IC50 (SK-MEL-28): 35 µM
